Measurements reported in patent US5362480A, “Oral hygiene compositions containing amino sugars as antiplaque agents” (Lever Brothers Company, Division of Conopco, Inc., priority 1992, dated 1994).
In brackets after ≈: the same amount, converted by molar mass. Like-named read-outs stand apart in the source and are kept apart here.

How the values were obtained:
[1] = tested on: Streptococcus sobrinus; assay: Antimicrobial activity determination (MIC); type: cell-based, Streptococcus sobrinus 6715; conditions: read-out: Minimum Inhibitory Concentration, Streptococcus sobrinus
Procedure: (§1) The antimicrobial activity of the targeted agents was assessed by determining the minimum inhibitory concentration (MIC). Pure cultures of various strains of oral bacterial species as indicated in Table 3 were combined with serial dilutions of the targeted agents in beef heart infusion broth (BHI); starting bacterial concentrations were approximately 1.0×10E6 colony forming units (CFU) per ml. The mixtures were incubated aerobically at 37 degrees C. and the optical density (540 nm, path length 1 cm) of the cultures was measured at 0.0, 24.0 and 48.0 hr using Bausch and Lomb Spec 20 variable wavelength spectrophotometer.
(§2) The amino sugars within the scope of the invention and other compounds were tested for their bacteriostatic effects on the growth of several species of oral bacteria.

[2] = tested on: Porphyromonas gingivalis; assay: Antimicrobial activity determination (MIC); type: cell-based, Porphyromonas gingivalis W83; conditions: read-out: Minimum Inhibitory Concentration, Porphyromonas gingivalis
Procedure: as §1, §2

[3] = tested on: Neisseria subflava; assay: Antimicrobial activity determination (MIC); type: cell-based, Neisseria subflava A1078; conditions: read-out: Minimum Inhibitory Concentration, Neisseria subflava
Procedure: as §1, §2

[4] = tested on: Streptococcus sanguis; assay: Antimicrobial activity determination (MIC); type: cell-based; conditions: read-out: Minimum Inhibitory Concentration, Streptococcus sanguis
Procedure: as §1, §2

[5] = tested on: Actinomyces naeslundii; assay: Antimicrobial activity determination (MIC); type: cell-based; conditions: read-out: Minimum Inhibitory Concentration, Actinomyces naeslundii
Procedure: as §1, §2

[6] = tested on: coaggregation of Actinomyces naeslundii PK29 and Streptococcus sanguis G9B (β-galactose-specific binding proteins on A. naeslundii); assay: Bacterial coaggregation assay (A. naeslundii PK29 with S. sanguis G9B); type: cell-based; conditions: for inhibition compared to the parent saccharide, lactose: vs lactose
Procedure: (§3) A bacterial coaggregation assay was used to determine the ability of various amino sugars to interfere with lectin-mediated binding among various bacterial species. For instance, many Actinomyces naeslundii strains coaggregate with Streptococcus sanguis as a result of binding between a lectin produced by the A. naeslundii cells and β-galactose-containing structures on the surface of the streptococci. For the present assay, A. naeslundii PK29 and S. sanguis G9B were cultured overnight in a medium containing 2.5% tryptone, 1.5% yeast extract, 0.1% magnesium sulfate, and 1.0% fructose. The cells were then washed twice in a 1.0 mM potassium phosphate buffer (pH=6.8) containing 1.0 mM calcium chloride, 0.1 mM magnesium chloride, and 50.0 mM potassium chloride (buffered KCl), after which they were resuspended in buffered KCl at an optical density (540 nm) of 1.5. The coaggregations were performed by combining 0.5 ml of each bacterial suspension with 0.2 ml of 5.0% bovine serum albumin (BSA) and 0.8 ml of an appropriate concentration of a targeted anti-plaque agent in 3.0 ml capped polystyrene cuvettes. The cuvettes (path length 1 cm) were gently inverted at room temperature, and the optical density (540 nm) was determined as a function of time (2.0 min intervals; 20 min).
(§4) The instrument employed to measure optical density was a variable wavelength spectrophotometer (Gilson Respons® Spectrophotometer, bought from Gilson).
(§5) The activity of a tested compound was expressed as inhibition relative to buffer controls (i.e., % inhibition=[1-change in optical density (inhibitor)]/change in optical density [control])×100.
(§6) The ability of various amino sugars (prepared as described in Examples 1 and 2) to target to β-galactose-specific binding proteins on A. naeslundii and thus to interfere with coaggregation interactions between A. naeslundii and S. sanguis was investigated. Coaggregation of Actinomyces naeslundii PK29 and Streptococcus sanguis G9B was performed as described in the Methods section (Bacterial Coaggregation Assay) above. Inhibition was calculated as 1.0--the change in optical density (540 nm) in the sample containing compound tested/the change in optical density in the coaggregation buffer control.

[7] = as above; type: cell-based, Actinomyces naeslundii PK29; Streptococcus sanguis G9B; conditions: Actinomyces naeslundii
Procedure: as §3, §4, §5, §6

[8] = tested on: Clinical plaque strains; conditions: mouth rinse, five human individuals; cited from earlier work
[9] = tested on: Actinomyces strains 12104 and LY7; conditions: cited from earlier work
[10] = tested on: A. naeslundii PK29; assay: Latex bead-bacterial agglutination assay (asialofetuin-coated latex beads); type: cell-based, Actinomyces naeslundii PK29
Procedure: A latex bead agglutination assay was utilized to determine the effects of the amino sugars on lectin-mediated bacterial adherence to glycoprotein-coated surfaces. Latex beads (6.0 micrometer diameter) were prepared by suspending them in a 0.5 mg/ml solution of asialofetuin (a glycoprotein rich in oligosaccharide side chains which terminate in β-galactosyl groups) in 20.0 mM trishydroxyaminomethane buffer (ph=8.2) containing 0.73% glycine, 1.0% sodium chloride, 0.1 mM calcium chloride, and 0.02% sodium azide (TGS buffer). The beads were treated for 30.0 min at 37 degrees C. after which they were washed and resuspended in 0.1% BSA in TGS buffer. A. naeslundii PK29 cells were cultured as described in Bacterial Coaggregation Assay, washed, and resuspended in TGS buffer to an optical density (540 nm) of 1.5. The bacterial suspension (0.1 ml) and the prepared latex beads (1.0 ml) were combined with an appropriate concentration of inhibitor (0.8 ml) in 3.0 ml capped polystyrene cuvettes. The cuvettes were gently inverted at room temperature, and optical density (OD 540nm, 1 cm path length) was monitored at 2.0 min intervals for 20.0 min. The instrument employed was Gilson Response®.
The ability of the amino sugars to inhibit bacterial adhesion was also tested using the latex bead assay described above (Methods section). This assay measures the ability of the test agents to interfere with bacterial adhesion to a glycoprotein-coated solid surface, which is analogous to pellicle coated tooth surface. Agglutination of asialofetuin-coated latex beads by A. naeslundii PK29 performed as described above. Inhibition was calculated as 1.0--the change in optical density (540 nm) in the sample containing the inhibitor/the change in optical density in the coaggregation buffer control.

[11] = tested on: Veillonella dispar; assay: Antimicrobial activity determination (MIC); type: cell-based, Veillonella dispar 17745; conditions: BHI broth, 37 degrees C., aerobic, read-out: Minimum Inhibitory Concentration, Veillonella dispar
Procedure: as §1, §2

[12] = tested on: Prevotella intermedius; assay: Antimicrobial activity determination (MIC); type: cell-based, Prevotella intermedius 25611; conditions: BHI broth, 37 degrees C., aerobic, read-out: Minimum Inhibitory Concentration, Prevotella intermedius
Procedure: as §1, §2

[13] = tested on: Actinomyces viscosus; conditions: cited from earlier work
[14] = tested on: Actinomyces naeslundii; conditions: cited from earlier work
[15] = BHI broth, 37 degrees C., aerobic

For CCCCCCCN[C@@H]1O[C@H](CO)[C@H](O)[C@H](O)[C@H]1O [N-heptyl galactosylamine], which MIC [1, 15] is on record?
Its MIC is 1000 µg/mL (≈ 3610 µM).

What about the MIC [2, 15] of the same compound?
Its MIC is 125 µg/mL (≈ 451 µM).

What about the MIC [3, 15] of the same compound?
Its MIC is 125 µg/mL (≈ 451 µM).

And the MIC [4, 15]?
Its MIC is greater than 1000 µg/mL.

What about the MIC [5, 15] of the same compound?
The MIC was 250 µg/mL (≈ 901 µM).

What about the “inhibition of β-galactose-specific coaggregation (in words)” value [6] of the same compound?
The value was “effective inhibitors”.

What about the “inhibition of bacterial coaggregation compared to the parent saccharide, galactose” value ([6]; at the concentration tested, vs galactose) of the same compound?
The value was “approximately twice as much”.

And the inhibition at 2900 µM [7]?
Its inhibition at 2900 µM is 20%.

With CCCCCCCCCCN[C@@H]1O[C@H](CO)[C@@H](O[C@@H]2O[C@H](CO)[C@H](O)[C@H](O)[C@H]2O)[C@H](O)[C@H]1O [N-decyl lactosylamine] as the compound, how does the MIC [1, 15] read?
The MIC was 30 µg/mL (≈ 62.3 µM).

And the MIC [3, 15]?
Its MIC is 60 µg/mL (≈ 125 µM).

And the MIC [4, 15]?
The MIC was 600 µg/mL (≈ 1250 µM).

What about the MIC [5, 15] of the same compound?
Its MIC is 30 µg/mL (≈ 62.3 µM).

And the “inhibition of β-galactose-specific coaggregation (in words)” value [6]?
Its value is “effective inhibitors”.

What about the “inhibition compared to the parent saccharide, lactose” value [6] of the same compound?
The value was “slighly improved inhibition”.

What about the inhibition at 1000 µM [7] of the same compound?
The inhibition at 1000 µM was 11%.

And the inhibition at 2100 µM [7]?
Its inhibition at 2100 µM is 30%.

What about the inhibition at 3000 µM [7] of the same compound?
Its inhibition at 3000 µM is 64%.

Which MIC [1, 15] does the source give for CCCCCCCN[C@@H]1O[C@H](CO)[C@@H](O[C@@H]2O[C@H](CO)[C@H](O)[C@H](O)[C@H]2O)[C@H](O)[C@H]1O [N-heptyl lactosylamine] here?
The MIC was 1000 µg/mL (≈ 2280 µM).

And the MIC [2, 15]?
The MIC was 500 µg/mL (≈ 1140 µM).

What about the MIC [3, 15] of the same compound?
The MIC was 500 µg/mL (≈ 1140 µM).

And the MIC [4, 15]?
The MIC was greater than 1000 µg/mL.

What about the MIC [5, 15] of the same compound?
Its MIC is 500 µg/mL (≈ 1140 µM).

What about the “inhibition of β-galactose-specific coaggregation (in words)” value [6] of the same compound?
The value was “effective inhibitors”.

And the “inhibition compared to the parent saccharide, lactose” value [6]?
The value was “slighly improved inhibition”.

What about the inhibition at 1100 µM [7] of the same compound?
Its inhibition at 1100 µM is 23%.

What about the inhibition at 3000 µM [7] of the same compound?
Its inhibition at 3000 µM is 63%.

What about the inhibition at 11400 µM [7] of the same compound?
Its inhibition at 11400 µM is 79%.

Which plaque inhibitory activity [8] does the source give for CCO[C@H]1O[C@H](CO)[C@H](O)[C@H](O[C@@H]2O[C@H](CO)[C@H](O)[C@H](O)[C@H]2NC(C)=O)[C@H]1O [GalNAcβ-3Galα1-O-ethyl] here?
The plaque inhibitory activity was “plaque inhibitory activity”.

And the adherence [9]?
The adherence was “blocked adherence”.

Which inhibition at 1800 µM ([10]; Actinomyces naeslundii, PK29) does the source give for CCCCCCCCCCN[C@@H]1O[C@H](CO)[C@H](O)[C@H](O)[C@H]1O [N-decyl galactosylamine] here?
Its inhibition at 1800 µM is 51%.

What about the “inhibition of agglutination compared to galactose” value ([10]; vs galactose) of the same compound?
The value was “substantially more potent inhibitor”.

For O=C[C@H](O)[C@@H](O)[C@@H](O)[C@H](O)CO [Galactose, reference compound], which inhibition at 2800 µM ([10]; Actinomyces naeslundii, PK29) is on record?
The inhibition at 2800 µM was 17%.

And the inhibition at 2800 µM [7]?
Its inhibition at 2800 µM is 10%.

For CCCCCCCCCCCCOS(=O)(=O)[O-].[Na+] [Sodium dodecyl sulfate, reference compound], which MIC [1] is on record?
The MIC was 60 µg/mL.

What about the MIC [2] of the same compound?
The MIC was 2 µg/mL.

What about the MIC [3] of the same compound?
Its MIC is 8 µg/mL.

What about the MIC [4] of the same compound?
The MIC was 15 µg/mL.

And the MIC [5]?
Its MIC is 8 µg/mL.

And the MIC [11]?
Its MIC is 60 µg/mL.

What about the MIC [12] of the same compound?
The MIC was 16 µg/mL.

For CCCCCCCCNC1O[C@H](CO)[C@@H](O)[C@H](O)[C@H]1O (stereo partly drawn) [N-octyl glucosylamine, reference compound], which “inhibition of β-galactose-specific coaggregation (in words)” value [6] is on record?
The value was “lack of inhibition”.

What about the inhibition at 3400 µM [7] of the same compound?
Its inhibition at 3400 µM is 0%.

For OC[C@H]1O[C@@H](O[C@H]2[C@H](O)[C@@H](O)C(O)O[C@@H]2CO)[C@H](O)[C@@H](O)[C@H]1O (stereo partly drawn) [Lactose, reference compound], which inhibition at 3000 µM [7] is on record?
Its inhibition at 3000 µM is 61%.

With CCOC1O[C@H](CO)[C@H](O)[C@H](O[C@@H]2O[C@H](CO)[C@H](O)[C@H](O)[C@H]2NC(C)=O)[C@H]1O (stereo partly drawn) [N-acetyl-galactosamine-β1,3-galactose-O-ethyl] as the compound, how does the “inhibition of binding to human erythrocytes” value [13] read?
The value was “inhibitor of binding”.

And the “inhibition of binding to human erythrocytes” value [14]?
The value was “inhibitor of binding”.

Which “inhibition of agglutination of glycoprotein-coated latex beads (in words)” value [10] does the source give for CCCCCCCCCCNC1O[C@H](CO)[C@@H](O)[C@H](O)[C@H]1O (stereo partly drawn) [N-decyl glucosylamine] here?
The value was “not an effective inhibitor”.

What about the inhibition at 1800 µM ([10]; Actinomyces naeslundii, PK29) of the same compound?
The inhibition at 1800 µM was 9%.

And the MIC [5, 15]?
The MIC was greater than 5000 µg/mL.
